Measurements taken from patent US7846959B2, “Raf modulators and methods of use” (Exelixis, Inc., priority 2004, dated 2010).
Where two headings read alike, the source gives them in different places.

Experiments:
c-Raf = c-Raf (Homo sapiens, UniProt P04049); assay: Luciferase-coupled chemiluminescence kinase assay (ATP consumption), c-Raf; format: biochemical
How it was run: (§1)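 Compound is first mixed with […] Raf enzyme in 20 mM Tris pH 7.5 containing 10 mM MgCl2, 0.03% TX-100 and 1 mM DTT (30 min, room temperature). ATP then starts a 3 h reaction, and unconsumed ATP is detected by chemiluminescence.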

B-Raf = B-Raf (Homo sapiens, UniProt P15056); assay: Luciferase-coupled chemiluminescence kinase assay (ATP consumption), B-Raf; format: biochemical
Sequence of B-Raf (P15056 whole entry): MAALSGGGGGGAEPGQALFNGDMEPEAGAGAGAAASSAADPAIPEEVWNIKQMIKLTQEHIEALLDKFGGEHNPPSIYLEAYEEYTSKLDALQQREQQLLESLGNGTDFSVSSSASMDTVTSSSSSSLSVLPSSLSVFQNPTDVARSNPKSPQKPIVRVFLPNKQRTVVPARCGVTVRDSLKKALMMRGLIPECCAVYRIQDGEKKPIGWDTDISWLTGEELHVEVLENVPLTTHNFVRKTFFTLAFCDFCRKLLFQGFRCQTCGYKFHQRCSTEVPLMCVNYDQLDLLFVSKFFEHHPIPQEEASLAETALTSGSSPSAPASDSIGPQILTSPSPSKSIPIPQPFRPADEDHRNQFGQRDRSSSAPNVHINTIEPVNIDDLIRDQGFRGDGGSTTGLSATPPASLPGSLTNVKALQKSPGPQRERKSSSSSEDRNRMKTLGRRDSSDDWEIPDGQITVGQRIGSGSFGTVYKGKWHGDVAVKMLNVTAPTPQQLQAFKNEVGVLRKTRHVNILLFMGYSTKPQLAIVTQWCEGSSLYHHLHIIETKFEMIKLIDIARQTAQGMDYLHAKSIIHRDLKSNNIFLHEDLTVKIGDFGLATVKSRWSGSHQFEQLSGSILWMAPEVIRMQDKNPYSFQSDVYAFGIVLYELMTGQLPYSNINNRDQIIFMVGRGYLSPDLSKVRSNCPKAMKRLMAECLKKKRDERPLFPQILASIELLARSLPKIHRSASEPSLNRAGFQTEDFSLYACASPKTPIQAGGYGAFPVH
How it was run: as §1

[1] = read-out: cRaf-1 (inhibition indicated as IC50)
[2] = read-out: bRaf (inhibition indicated as IC50)

Sequence of c-Raf (P04049 whole entry): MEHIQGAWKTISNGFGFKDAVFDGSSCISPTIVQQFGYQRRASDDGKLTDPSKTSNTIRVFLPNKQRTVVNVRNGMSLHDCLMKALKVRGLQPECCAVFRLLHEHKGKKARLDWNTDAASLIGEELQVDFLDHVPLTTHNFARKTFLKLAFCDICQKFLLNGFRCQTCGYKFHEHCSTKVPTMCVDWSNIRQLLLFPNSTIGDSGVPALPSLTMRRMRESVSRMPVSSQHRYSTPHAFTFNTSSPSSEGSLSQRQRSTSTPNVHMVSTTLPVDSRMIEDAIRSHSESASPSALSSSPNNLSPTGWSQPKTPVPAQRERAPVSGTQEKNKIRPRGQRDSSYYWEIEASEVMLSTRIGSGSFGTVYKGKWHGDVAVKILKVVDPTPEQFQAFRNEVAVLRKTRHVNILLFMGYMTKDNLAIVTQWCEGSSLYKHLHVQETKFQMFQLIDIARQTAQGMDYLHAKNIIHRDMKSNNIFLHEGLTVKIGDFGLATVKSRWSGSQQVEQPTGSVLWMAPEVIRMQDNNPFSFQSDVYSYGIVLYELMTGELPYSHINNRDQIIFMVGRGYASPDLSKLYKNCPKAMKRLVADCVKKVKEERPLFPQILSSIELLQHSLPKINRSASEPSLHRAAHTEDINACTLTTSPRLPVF

Row | IC50 (c-Raf; read-out: cRaf-1 IC50) [nM] | IC50 (B-Raf; read-out: bRaf IC50) [nM] | IC50 (c-Raf; [1]) [nM] | IC50 (B-Raf; [2]) [nM] | SMILES
1 | 1000 to 10000 | 1000 to 10000 | – | – | COC(=O)Nc1nc2cc(C3(O)c4ccccc4C(=O)N3c3ccc(OC)cc3)ccc2[nH]1 (stereo not shown) [Entry 128, methyl (5-{1-hydroxy-2-[4-(methyloxy)phenyl]-3-oxo-2,3-dihydro-1H-isoindol-1-yl}-1H-benzimidazol-2-yl)carbamate]
2 | 100 to 1000 | 1000 to 10000 | – | – | COC(=O)Nc1nc2cc(C3(O)c4ccccc4C(=O)N3C(C)c3cc(F)cc(F)c3)ccc2[nH]1 (stereo not shown) [Entry 165, methyl (5-{2-[1-(3,5-difluorophenyl)ethyl]-1-hydroxy-3-oxo-2,3-dihydro-1H-isoindol-1-yl}-1H-benzimidazol-2-yl)carbamate]
3 | 100 to 1000 | 100 to 1000 | – | – | CC(C)COC(=O)Nc1nc2cc(C3(O)c4ccccc4C(=O)N3Cc3ccccc3)ccc2[nH]1 (stereo not shown) [Entry 97, 2-methylpropyl {5-[1-hydroxy-3-oxo-2-(phenylmethyl)-2,3-dihydro-1H-isoindol-1-yl]-1H-benzimidazol-2-yl}carbamate]
4 | – | – | < 100 | 100 to 1000 | O=C(Nc1nc2cc(C3(O)c4ccccc4C(=O)N3c3ccc(F)cc3)ccc2[nH]1)OCCN1CCCCC1 (stereo not shown) [Entry 283, 2-piperidin-1-ylethyl {5-[2-(4-fluorophenyl)-1-hydroxy-3-oxo-2,3-dihydro-1H-isoindol-1-yl]-1H-benzimidazol-2-yl}carbamate]
5 | < 100 | < 100 | – | – | COC(=O)Nc1nc2cc(C3(O)c4ccccc4C(=O)N3Cc3cccs3)ccc2[nH]1 (stereo not shown) [Entry 98, methyl {5-[1-hydroxy-3-oxo-2-(2-thienylmethyl)-2,3-dihydro-1H-isoindol-1-yl]-1H-benzimidazol-2-yl}carbamate]
6 | 100 to 1000 | 100 to 1000 | – | – | COC(=O)Nc1nc2ccc(C3(O)c4ccccc4C(=O)N3Cc3ccc(F)cc3)cc2[nH]1 (stereo not shown) [Entry 119, methyl (6-{2-[(4-fluorophenyl)methyl]-1-hydroxy-3-oxo-2,3-dihydro-1H-isoindol-1-yl}-1H-benzimidazol-2-yl)carbamate]
7 | < 100 | < 100 | – | – | CCCOC(=O)Nc1nc2cc(C3(O)c4ccccc4C(=O)N3Cc3ccccc3)ccc2[nH]1 (stereo not shown) [Entry 127, propyl {5-[1-hydroxy-3-oxo-2-(phenylmethyl)-2,3-dihydro-1H-isoindol-1-yl]-1H-benzimidazol-2-yl}carbamate]
8 | < 100 | < 100 | – | – | COC(=O)Nc1nc2cc(C3(O)c4ccccc4C(=O)N3c3ccccc3OC)ccc2[nH]1 (stereo not shown) [Entry 145, methyl (5-{1-hydroxy-2-[2-(methyloxy)phenyl]-3-oxo-2,3-dihydro-1H-isoindol-1-yl}-1H-benzimidazol-2-yl)carbamate]
9 | – | – | 100 to 1000 | 100 to 1000 | COC(=O)Nc1nc2cc(C(=O)c3ccccc3C(=O)NNc3ccccc3)ccc2[nH]1 [Entry 271, methyl [5-({2-[(2-phenylhydrazino)carbonyl]phenyl}carbonyl)-1H-benzimidazol-2-yl]carbamate]
10 | < 100 | < 100 | – | – | COC(=O)Nc1nc2cc(C3(O)c4ccccc4C(=O)N3c3cc(Br)ccc3F)ccc2[nH]1 (stereo not shown) [Entry 230, methyl {5-[2-(5-bromo-2-fluorophenyl)-1-hydroxy-3-oxo-2,3-dihydro-1H-isoindol-1-yl]-1H-benzimidazol-2-yl}carbamate]
11 | < 100 | < 100 | – | – | COC(=O)Nc1nc2cc(C3(O)c4ccccc4C(=O)N3c3cccc(NC(C)=O)c3)ccc2[nH]1 (stereo not shown) [Entry 231, methyl (5-{2-[3-(acetylamino)phenyl]-1-hydroxy-3-oxo-2,3-dihydro-1H-isoindol-1-yl}-1H-benzimidazol-2-yl)carbamate]
12 | 100 to 1000 | 100 to 1000 | – | – | COC(=O)Nc1nc2cc(C3(O)c4ccccc4C(=O)N3c3ccc(C)cc3)ccc2[nH]1 (stereo not shown) [Entry 146, methyl {5-[1-hydroxy-2-(4-methylphenyl)-3-oxo-2,3-dihydro-1H-isoindol-1-yl]-1H-benzimidazol-2-yl}carbamate]
13 | ≥ 10000 | ≥ 10000 | – | – | CS(=O)(=O)c1cccc(N2C(=O)c3ccccc3C2(O)c2ccc3c(c2)NC(=O)CO3)c1 (stereo not shown) [Entry 69, 6-{1-hydroxy-2-[3-(methylsulfonyl)phenyl]-3-oxo-2,3-dihydro-1H-isoindol-1-yl}-2H-1,4-benzoxazin-3(4H)-one]
14 | – | – | < 100 | < 100 | CCC(=O)Nc1nc2ccc(C3(O)c4ccccc4C(=O)N3c3ccc(F)cc3)cc2[nH]1 (stereo not shown) [Entry 275, N-{6-[2-(4-fluorophenyl)-1-hydroxy-3-oxo-2,3-dihydro-1H-isoindol-1-yl]-1H-benzimidazol-2-yl}propanamide]
15 | 1000 to 10000 | 1000 to 10000 | – | – | N#Cc1cccc(N2C(=O)c3ccccc3C2(O)c2ccc3c(c2)NC(=O)CO3)c1 (stereo not shown) [Entry 71, 3-[1-hydroxy-3-oxo-1-(3-oxo-3,4-dihydro-2H-1,4-benzoxazin-6-yl)-1,3-dihydro-2H-isoindol-2-yl]benzonitrile]

More lines, now with the values behind:

Row | SMILES | IC50 (c-Raf; read-out: cRaf-1 IC50) [nM] | IC50 (B-Raf; read-out: bRaf IC50) [nM] | IC50 (c-Raf; [1]) [nM] | IC50 (B-Raf; [2]) [nM]
16 | COC(=O)Nc1nc2cc(C(=O)c3ccccc3NC(=O)Nc3ccccc3)ccc2[nH]1 [Entry 269, methyl {5-[(2-{[(phenylamino)carbonyl]amino}phenyl)carbonyl]-1H-benzimidazol-2-yl}carbamate] | – | – | 100 to 1000 | 100 to 1000
17 | Cc1cccc(N2C(=O)c3ccccc3C2(O)c2ccc3nc(Nc4ncccn4)[nH]c3c2)c1 (stereo not shown) [Entry 374, 3-hydroxy-2-(3-methylphenyl)-3-[2-(pyrimidin-2-ylamino)-1H-benzimidazol-6-yl]-2,3-dihydro-1H-isoindol-1-one] | – | – | < 100 | < 100
18 | COC(=O)Nc1nc2cc(C3(O)c4ccccc4C(=O)N3c3cccc(CN(C)C)c3)ccc2[nH]1 (stereo not shown) [Entry 235, methyl [5-(2-{3-[(dimethylamino)methyl]phenyl}-1-hydroxy-3-oxo-2,3-dihydro-1H-isoindol-1-yl)-1H-benzimidazol-2-yl]carbamate] | 100 to 1000 | 100 to 1000 | – | –
19 | COC(=O)Nc1nc2cc(C3(O)c4ccccc4C(=O)N3c3cccc(N4CCCC4)c3)ccc2[nH]1 (stereo not shown) [Entry 298, methyl {5-[1-hydroxy-3-oxo-2-(3-pyrrolidin-1-ylphenyl)-2,3-dihydro-1H-isoindol-1-yl]-1H-benzimidazol-2-yl}carbamate] | – | – | 1000 to 10000 | 1000 to 10000
20 | NS(=O)(=O)c1cccc(N2C(=O)c3ccccc3C2(O)c2ccc3c(c2)NC(=O)CO3)c1 (stereo not shown) [Entry 62, 3-[1-hydroxy-3-oxo-1-(3-oxo-3,4-dihydro-2H-1,4-benzoxazin-6-yl)-1,3-dihydro-2H-isoindol-2-yl]benzenesulfonamide] | 1000 to 10000 | ≥ 10000 | – | –
21 | COC(=O)Nc1nc2cc(C3(O)c4ccccc4C(=O)N3c3cc(C)cc(C(F)(F)F)c3)ccc2[nH]1 (stereo not shown) [Entry 175, methyl (5-{1-hydroxy-2-[3-methyl-5-(trifluoromethyl)phenyl]-3-oxo-2,3-dihydro-1H-isoindol-1-yl}-1H-benzimidazol-2-yl)carbamate] | < 100 | < 100 | – | –
22 | O=C(Nc1nc2ccc(C3(O)c4ccccc4C(=O)N3c3cccc(Cl)c3F)cc2[nH]1)OCCCN1CCCCC1 (stereo not shown) [Entry 294, 3-piperidin-1-ylpropyl {6-[2-(3-chloro-2-fluorophenyl)-1-hydroxy-3-oxo-2,3-dihydro-1H-isoindol-1-yl]-1H-benzimidazol-2-yl}carbamate] | – | – | 1000 to 10000 | 1000 to 10000
23 | C#CCOC(=O)Nc1nc2cc(C3(O)c4ccccc4C(=O)N3Cc3ccccc3)ccc2[nH]1 (stereo not shown) [Entry 108, prop-2-yn-1-yl {5-[1-hydroxy-3-oxo-2-(phenylmethyl)-2,3-dihydro-1H-isoindol-1-yl]-1H-benzimidazol-2-yl}carbamate] | < 100 | < 100 | – | –
24 | O=C1COc2ccc(C(=O)c3ccccc3-c3nc4ccccc4[nH]3)cc2N1 [Entry 49, 6-{[2-(1H-benzimidazol-2-yl)phenyl]carbonyl}-2H-1,4-benzoxazin-3(4H)-one] | ≥ 10000 | ≥ 10000 | – | –
25 | COC(=O)Nc1nc2ccc(C(=O)c3ccccc3C(=O)Nc3ccc(F)c(Cl)c3)cc2[nH]1 [Entry 401, methyl {6-[(2-{[(3-chloro-4-fluorophenyl)amino]carbonyl}phenyl)carbonyl]-1H-benzimidazol-2-yl}carbamate] | – | – | < 100 | < 100
26 | CC(C)(C)OC(=O)N1CCC(COC(=O)Nc2nc3cc(C4(O)c5ccccc5C(=O)N4Cc4ccccc4)ccc3[nH]2)CC1 (stereo not shown) [Entry 315, 1,1-dimethylethyl 4-({[({5-[1-hydroxy-3-oxo-2-(phenylmethyl)-2,3-dihydro-1H-isoindol-1-yl]-1H-benzimidazol-2-yl}amino)carbonyl]oxy}methyl)piperidine-1-carboxylate] | – | – | 100 to 1000 | 100 to 1000
27 | COCCOC(=O)Nc1nc2cc(C3(O)c4ccccc4C(=O)N3c3cccc(Cl)c3F)ccc2[nH]1 (stereo not shown) [Entry 336, 2-(methyloxy)ethyl {5-[2-(3-chloro-2-fluorophenyl)-1-hydroxy-3-oxo-2,3-dihydro-1H-isoindol-1-yl]-1H-benzimidazol-2-yl}carbamate] | – | – | < 100 | < 100
28 | O=C(Nc1nc2cc(C3(O)c4ccccc4C(=O)N3Cc3ccccc3)ccc2[nH]1)OCC(O)CO (stereo not shown) [Entry 215, 2,3-dihydroxypropyl {5-[1-hydroxy-3-oxo-2-(phenylmethyl)-2,3-dihydro-1H-isoindol-1-yl]-1H-benzimidazol-2-yl}carbamate] | < 100 | < 100 | – | –
29 | O=C(Nc1nc2ccc(C3(O)c4ccccc4C(=O)N3c3cccc(Cl)c3F)cc2[nH]1)OCCN1C(=O)CCC1=O (stereo not shown) [Entry 324, 2-(2,5-dioxopyrrolidin-1-yl)ethyl {6-[2-(3-chloro-2-fluorophenyl)-1-hydroxy-3-oxo-2,3-dihydro-1H-isoindol-1-yl]-1H-benzimidazol-2-yl}carbamate] | – | – | < 100 | < 100
